Patent US20220257569A1, “INDOLE-OXADIAZOLE COMPOUNDS AND THEIR THERAPEUTIC USE” (THE GOVERNING COUNCIL OF THE UNIVERSITY OF TORONTO, priority 2018, published 2022)
“Also recorded” adds a separate entry of the source.

Columns and labels:
[1] = Rat liver microsomal stability assay; format: in vitro ADME; details: pooled rat liver microsomes 0.5 mg/mL, 3 μM compound, NADPH, 37° C., 45 min
Method: Metabolic stability of indole-oxadiazole derivatives of Formula I was measured by determination of the rate of compound disappearance when incubated in the presence of human or rat liver microsomes. Liver microsomes are prepared from the endoplasmic reticulum of hepatocytes and are the primary source of the most important enzymes (cytochrome P450) involved in drug metabolism. Study of drug stability in the presence of liver microsomes is accepted as a valuable model permitting rapid prediction of in vivo drug stability.
Human and rat liver microsomes were obtained from commercial sources. Test compounds (3 μM) were incubated with pooled liver microsomes (male and female). Samples were incubated for a 45 minute period and removed at 5 time points and test compounds were analysed by LC-MS/MS.
Microsomes (final protein concentration 0.5 mg/mL), 0.1 M phosphate buffer pH 7.4, and test compound (final concentration 3 μM; diluted from 10 mM stock solution to give a final DMSO concentration of 0.25%) were incubated at 37° C. prior to the addition of NADPH (final concentration 1 mM) to initiate the reaction. The final incubation volume was 25 μL. A control incubation was included for each compound tested, where 0.1 M phosphate buffer pH 7.4 was added instead of NADPH. The control compounds testosterone and 7-hydroxycoumarin were included in each experiment and all incubations were performed singularly for each compound.
Each compound was incubated for 0, 5, 15, 30, and 45 minutes. The control (minus NADPH) was incubated for 45 minutes only. The reactions were stopped by the addition of 50 μL methanol containing internal standard at the appropriate time points. The incubation plates were centrifuged at 2500 rpm for 20 minutes at 4° C. to precipitate the protein.
Following protein precipitation, the sample supernatants were combined in cassettes of up to 4 compounds and analysed using standard LC-MS/MS conditions.
From a plot of the natural logarithm of the peak area ratio (i.e., the ratio of compound peak area:internal standard peak area) against time, the gradient of the line was determined. Subsequently, half-life and intrinsic clearance were calculated using the equations below:
Eliminated rate constant (k)=(−gradient).

DATKO mice = test: Open field test in DATKO mice and WT littermates; format: in vivo; details: 10 mg/kg; for Locomotor Activity (total distance traveled) / Stereotypy (total stereotypic movements) / Vertical Activity (total): mean±SEM
Excerpt: DAT1/SLC6A3 gene polymorphism associations have been identified in various psychiatric disorders, including ADHD, BD and SCZ. Also, in line with reduced functioning of the dopamine transporter (DAT) in BD patients, mice without functioning DAT display behavioural abnormalities that model mania observed in BD and that mimic positive symptoms in SCZ. These mice are accepted as a model for assessing the effects of novel small molecules that may have utility in modulating the dopamine dysfunction; deficits respond to both lithium and antipsychotics (Beaulieu et al., 2004; Gainetdinov et al., 1999; Ralph et al., 2001).
Adult (>P70) GluN1-knockdown (GluN1KD—F1: C571Bl/6J x 129S1/SvlmJ) and DAT-knockout (DATKO—C57Bl/6J), balanced for sex, were treated with either vehicle (1:1:18-Tween80:95% ethanol:saline) or a novel CB1 negative allosteric modulator (CB1 NAM), ABM300, at 10 mg/kg, was tested in behavioural assays, and compared to littermate controls. Locomotor, stereotypic movements and vertical activity were tested, along with anxiety/mania and sensorimotor gating behaviours. All data were analyzed with two- or three-way ANOVA, as appropriate, and corrected for multiple comparisons.
Classically, locomotor output has been used as a gold standard for the measure of dopamine system dysfunction. The role of dopamine in movement control is well defined and, in its simplest forms, testing for hyperactivity is based on the premise that enhanced dopaminergic activity in rodents leads to enhanced motor activity (van den Buuse et al., 2010). Locomotor, stereotypic and vertical activity was recorded using digital activity monitors, quantifying horizontal and vertical activity, along with repetitive behaviour, via infrared beam breaks. GluN1 KD and DATKO display basal hyperactivity, with increases in stereotypic behaviours which can be ameliorated with antipsychotics (Peleg-Raibstein et al., 2008).

mice fed a HFD diet = test: Non-alcoholic fatty liver disease (NAFLD) model, high fat diet mice; format: in vivo
Method: Hepatic triglycerides were measured using an ethanolic-KOH saponification method for lysing liver tissue and hydrolyzing triglyceride molecules to release free glycerol.
Serum ALT, a marker for liver damage, was assessed using an Infinity™ ALT Liquid Stable Reagent (ThermoFisher).
A) A representative vehicle-treated liver is characterized by extensive cytoplasmic clearing indicative of both microvesicular and macrovesicular steatosis. […] Formalin-fixed livers were sectioned at […] and stained using standard H&E staining.
A) A representative vehicle-treated liver is characterized by regions of large ORO-stained vacuoles. […] Frozen OCT-fixed livers were cryosectioned at […] and stained using a conventional ORO staining technique, which stains for neutral lipids.
Diet-induced obese (DIO) mouse models can recapitulate the endocrine and metabolic dysfunction observed in obese humans, and thus serve as ideal preclinical models fortesting novel therapeutic compounds. To induce fatty liver or NAFL, male C57BL/6 mice (n=10 vehicle; n=10 CB1 NAM) are fed a high fat diet (60% calories from fat, TD.06414) for a minimum of 8 weeks starting at 6 weeks of age. Control mice (n=10; vehicle TD.08806) are fed a diet consisting of 10% calories from fat. Mice are weighed weekly to monitor weight gain, and food consumption assessed as the average amount of food consumed per day to determine a potential central effect on appetite suppression. […] Mice are dosed daily with 5 or 10 mg/kg indole-oxadiazole or vehicle (5% ethanol: 5% Tween 80:90% saline) by i.p. administration. After 28 days of administration, glucose tolerance and insulin tolerance tests are conducted on separate days. Blood is collected by terminal cardiac puncture under isoflurane anesthetic followed by cervical dislocation to collect sufficient volumes for the subsequent measurement of multiple analytes (insulin, ALT, triglycerides, adiponectin, leptin). Liver is weighed and collected in formalin (H&E staining for histopathology) and OCT (Oil Red O staining for lipid) or snap frozen for mRNA, protein and the assessment of hepatic triglycerides. Gene expression analyses is conducted to assess the levels of CB1 receptor, FAAH, and various lipogenic and fatty acid transport genes.

[2] = HFD 8 weeks, then 10 mg/kg daily for 4 weeks
[3] = HFD 8 weeks, then 10 mg/kg daily for 4 weeks, non-fasted mice
[4] = mouse model of fatty liver disease

Microsomal stability T1/2 Rat [1]: 1.83 h
Structure (SMILES): CCc1c(-c2nnc(Nc3ccccc3)o2)[nH]c2ccc(Cl)cc12 [ABM300, 5-(5-Chloro-3-ethyl-1H-indol-2-yl)-N-phenyl-1,3,4-oxadiazol-2-amine]
effect on hyperactivity (in words) (DATKO mice; DATKO mice): reduces hyperactivity
effect on abnormal stereotypic behaviours (in words) (DATKO mice; DATKO mice, open field): reduces abnormal stereotypic behaviours
effect on abnormal vertical exploration (risk-taking behaviour) (in words) (DATKO mice; DATKO mice, open field): reduces abnormal vertical exploration
Locomotor Activity (total distance traveled) (DATKO mice; DATKO mice, open field): 13120 ± 1961 cm
Stereotypy (total stereotypic movements) (DATKO mice; DATKO mice, open field): 900 ± 96
Vertical Activity (total) (DATKO mice; DATKO mice, open field): 530 ± 101
Locomotor Activity (total distance traveled) (DATKO mice; WT (C57Bl/6J) mice, open field): 1851 ± 378 cm
Stereotypy (total stereotypic movements) (DATKO mice; WT (C57Bl/6J) mice, open field): 533 ± 69
Vertical Activity (total) (DATKO mice; WT (C57Bl/6J) mice, open field): 262 ± 69
Hepatic Triglycerides (mice fed a HFD diet; [2]): 48.9 ± 14.6 mg/g tissue weight
Serum ALT (ALT activity) (mice fed a HFD diet; [2]): 18.1 ± 4.0 U/L
Oil Red O (ORO) stained liver sections (in words) (mice fed a HFD diet; [3]): smaller ORO-stained vacuoles
effect on macrovesicular and microvesicular steatosis, H&E stained liver sections (in words) (mice fed a HFD diet; [3]): reduces the macrovesicular and microvesicular steatosis; also recorded: cytoplasmic clearing characteristic of glycogen accumulation
effect on levels of triglycerides (in words) (mice fed a HFD diet; [4]): significantly reduces
effect on serum ALT (in words) (mice fed a HFD diet; [4]): significantly reduces
